system: T cells from inguinal and popliteal lymph nodes and spleen; test: T-cell recognition (proliferation) during adjuvant arthritis time course; type: cell-based, Lewis rats; details: positive: proliferation more than 1.5 times background in more than 25% of organs; days 14, 19, 21, 32, 39

| Sequence | T-cell recognition during adjuvant arthritis |
| --- | --- |
| FFSGSSQLE (listed as Rattus sp.) [SEQ ID NO: 49] | positive |
| GHSPPDDVD (listed as Homo sapiens) [SEQ ID NO: 51] | positive |
| GVSASVPVE (listed as Rattus sp.) [SEQ ID NO: 30] | positive |
| IDTAVLHLD (listed as Rattus sp.) [SEQ ID NO: 33] | positive |
| IPTVNENLE (listed as Rattus sp.) [SEQ ID NO: 35] | positive |
| LGSGSTRLE (listed as Homo sapiens) [SEQ ID NO: 40] | positive |
| LPSGGDDLE (listed as Rattus sp.) [SEQ ID NO: 22] | positive |
| LPSGGESLE (listed as Rattus sp.) [SEQ ID NO: 21] | positive |
| LRSPVISID (listed as Homo sapiens) [SEQ ID NO: 23] | positive |
| LRSPVISIE (listed as Mus musculus) [SEQ ID NO: 24] | positive |
| PDSAPGEIE (listed as Rattus sp.) [SEQ ID NO: 31] | positive |
| SFSPTCVLE (listed as Homo sapiens) [SEQ ID NO: 38] | positive |
| SGSFTTALD (listed as Homo sapiens) [SEQ ID NO: 65] | positive |
| SGTPVDDLD (listed as Rattus sp.) [SEQ ID NO: 63] | positive |
| SHSAVCHLE (listed as Homo sapiens) [SEQ ID NO: 36] | positive |
| SHSFPATLE (listed as Homo sapiens) [SEQ ID NO: 47] | positive |
| TRSGNCYLD (listed as Homo sapiens) [SEQ ID NO: 54] | positive |
| VGSASGALD (listed as Rattus sp.) [SEQ ID NO: 20] | positive |

system: T cell clone A2b; test: Recognition by A2b T-cell clone: proliferation and/or activation marker expression; type: cell-based, Lewis rats; details: positive: proliferation more than 2 times background in 2 of 4 experiments and/or activation marker upregulation in 2 of 3 experiments
Procedure: As an immediate read-out for mimicry peptides T-cell activation is measured by proliferation, TcR downregulation, expression of activation markers, and cytokines responses of clone A2b. In addition A2b-like T cells from arthritic rats are isolated, and activation of such cells is measured by, proliferation, TcR downregulation, expression of activation markers, and cytokines responses. Furthermore, T-cell lines are generated after immunisation with MT/IFA or selected peptides/DDA. The cross-reactive nature of the peptide specific T-cell responses is analysed in vitro by determining the recognition of both the self peptide as well as the mycobacterial hsp65 178-186 peptide. After testing the panel of n=65 peptides for induction of proliferation of T cell clone A2b, and/or induction of expression of activation markers, n=20 peptides (SEQ ID NOs: 15, 19, 20, 21, 22, 23, 24, 26, 30, 31, 32, 33, 35, 49, 51, 61, 63, 65, 67, 69) were considered positive. Criteria for positivity were that in 2 out of 4 experiments the induced proliferation was more than 2 times background proliferation as measured by ^3H-thymidine incorporation, and/or that in 2 out of 3 experiments upregulation of an activation marker was detectable by FACS analysis.

| Sequence | Recognition by T cell clone A2b |
| --- | --- |
| FFSGSSQLE (listed as Rattus sp.) [SEQ ID NO: 49] | positive |
| GHSPPDDVD (listed as Homo sapiens) [SEQ ID NO: 51] | positive |
| GVSASVPVE (listed as Rattus sp.) [SEQ ID NO: 30] | positive |
| IDTAVLHLD (listed as Rattus sp.) [SEQ ID NO: 33] | positive |
| IPTVNENLE (listed as Rattus sp.) [SEQ ID NO: 35] | positive |
| ISSFCTVVD (listed as Rattus sp.) [SEQ ID NO: 61] | positive |
| LKSLSSQIE (listed as Homo sapiens) [SEQ ID NO: 19] | positive |
| LPSGGDDLE (listed as Rattus sp.) [SEQ ID NO: 22] | positive |
| LPSGGESLE (listed as Rattus sp.) [SEQ ID NO: 21] | positive |
| LRSINQGLD (listed as Rattus sp.) [SEQ ID NO: 67] | positive |
| LRSPVISID (listed as Homo sapiens) [SEQ ID NO: 23] | positive |
| LRSPVISIE (listed as Mus musculus) [SEQ ID NO: 24] | positive |
| NISLVGCIE (listed as Rattus sp.) [SEQ ID NO: 32] | positive |
| PDSAPGEIE (listed as Rattus sp.) [SEQ ID NO: 31] | positive |
| SGSFTTALD (listed as Homo sapiens) [SEQ ID NO: 65] | positive |
| SGTPVDDLD (listed as Rattus sp.) [SEQ ID NO: 63] | positive |
| VGSASGALD (listed as Rattus sp.) [SEQ ID NO: 20] | positive |
| VMSFVNMVE (listed as Homo sapiens) [SEQ ID NO: 69] | positive |

Reference: US6673770B1, “Peptides for the treatment, prophylaxis, diagnosis and monitoring of autoimmune diseases” (Upither B.V., priority 1998, dated 2004)
